The values below come from patent US7550426B2, “Acetylated therapeutic procytotoxins” (GHC Research Development Corporation, priority 2005, dated 2009).

The subject of one assay is LNCaP tumor. As to the kind of experiment: Plasma PSA levels in mouse model for human prostate cancer (LNCaP tumor), intraperitoneal treatment. The format is in vivo. Particulars: nude mice with LNCaP tumor; 200 μg peptide per injection, intraperitoneally, twice per week; PSA measured after three, five and seven weeks. The protocol: LNCaP cells lot #3475262 (Catalog # CRL-1740) are received from ATCC, quickly thawed at 37° C. and placed in culture immediately. Cells are cultured in RPMI media (supplemented with 10% FBS, 50,000 units of Penicillin and 50,000 ug Streptomycin) and grown at 37° C. in the presence of 5% CO2. Cells are passed when approximately 80% confluent until there are enough cells to do the in vivo studies.
(§1) 20 nude mice are injected subcutaneously (right flank) with 0.5 ml of a 4 million cell/ml suspension (50% PBS 50% high concentration matrigel). Each mouse receives approximately 2 million cells. The mice are male, approximately 12 weeks of age and of the nude BalbC background.
(§2) 5 days following LNCaP tumor inoculation, mice are injected with an acetylated γ-glutamate-masked amoebapore, a non-acetylated γ-glutamate-masked amoebapore, and a control. Six control mice are injected with 200 μl of PBS and the remaining 14 mice are injected with 200 μl of a 1 mg/ml solution of either the acetylated or non-acetylated γ-glutamate-masked amoebapore peptide (i.e., 200 μg peptide per injection). Mice are injected intraperitoneally, twice per week. PSA levels are measured after three, five, and seven weeks of treatment. Lower PSA levels relative to control provide an objective indication that the procytotoxin is converted to its cytotoxic form and is able to lyse a target cell.

Assay [1] in a line: Mouse weight after 7 weeks of intraperitoneal injection in mouse model for prostate cancer. Format: in vivo. The following applies: nude mice with LNCaP tumor; following 7 weeks of intraperitoneal injection; compared to control animals. The protocol: as §1, §2
Additionally, mice are weighed following 7 weeks of intraperitoneal injection of a non-acetylated procytotoxin or an acetylated procytoxin in a mouse model for prostate cancer. […] Cachexia is a profound and marked state of constitutional disorder, representing general ill health. It is sometimes associated with an emaciated condition, such as cancerous cachexia seen in cases of a malignant tumor. […]

Another assay relates to LNCaP cells. As to the kind of experiment: In vitro lysis of LNCaP cells measured by LDH release. Format: cell-based, human. The following applies: concentration 160 μM. As for the experimental part:
Prior to tumor injection, in vitro studies are conducted to check the activity of the acetylated and non-acetylated procytotoxin, and to check the activity of the LNCaP cells for their ability to secrete PSA. Peptide activity is checked by a LDH Cytotoxicity Detection Kit (Roche).
Non-acetylated γ-glutamate-masked amoebapore (a modified cytotoxin comprising one or more γ-linked glutamate residues linked via a peptide bond to the epsilon amino group of at least one lysine, preferably the C-terminal-most lysine), and acetylated γ-glutamate-masked amoebapore are compared in vitro for their ability to lyse LNCaP cells, as measured by percent lactic acid dehydrogenase (LDH) release.

The test system of the next assay is nucleated cells. Particulars: high concentrations; cited from earlier work.
The target in assay [2] is prostate specific membrane antigen (human) (UniProt Q04609).

As for `CC(=O)NC(CCC(=O)NC(CCC(=O)NCCCCC(N)C(N)=O)C(=O)O)C(=O)O` (stereo not drawn) [Acetylated procytotoxin], the “plasma PSA levels compared to control” value in the assay on LNCaP tumor is “lowered PSA levels to a greater extent”. The weight loss result in assay [1] is on record as “experienced the least weight loss”. In addition, the “% LDH Release” value in the assay on LNCaP cells was 29.94%.
As for “NH2-Gly-Phe-Ile-Ala-Thr-Leu-Cys-Thr-Lys-Val-Leu-Asp-Phe-Gly-Ile-Asp-Lys-Leu-Ile-Gln-Leu-Ile-Glu-Asp-Lys-CONH2 (H-GFIATLCTKVLDFGIDKLIQLIEDK-NH2; listed as Entamoeba histolytica) [Amoebapore Helix 3, parent cytolytic peptide from Entamoeba histolytica amoebapore, third helix]”, the “concentrations with cytolytic activity for nucleated cells” value in the assay on nucleated cells is 10 to 100 µM.
“non-acetylated γ-glutamate-masked amoebapore (peptide)” yielded a % LDH Release (% LDH Release) in assay [2] of 38.5.
In the case of “acetylated γ-glutamate-masked amoebapore (peptide)”, the % LDH Release (% LDH Release) in assay [2] was found to be 29.9.
